According to BindingDB's records for doi:10.1016/j.bmcl.2018.06.027 (Chinese Academy of Science, 2018):

Test: Inhibition of HIV1 3B protease infected in human MT4 cells assessed as protection from virus induced cytopathogenicity measured after 5 days post infection by MTT assay

CC(C)[C@H](NC(=O)N(C)Cc1c[se]c(-c2ccccc2)n1)C(=O)N[C@@H](Cc1ccccc1)C[C@H](O)[C@H](Cc1ccccc1)NC(=O)OCc1cncs1
EC50: 170 nM

CC(C)c1nc(CN(C)C(=O)N[C@H](C(=O)N[C@@H](Cc2ccccc2)C[C@H](O)[C@H](Cc2ccccc2)NC(=O)OCc2cncs2)C(C)C)c[se]1
EC50: 550 nM
